# In patent US10570129B2 (Zoetis Services LLC, priority 2015, dated 2020):
# How the values were obtained:
# [1] = tested on: Haemonchus contortus L3; assay: microbe, parasite or virus in culture; assay type: cell-based; conditions: Haemonchus contortus, 96 h, read-out: HcL3 Minimal Effective Concentration (MEC)
# [2] = tested on: D. immitis microfilariae; assay: Dirofilaria immitis, microfilariae (DiMF) in vitro motility assay; assay type: cell-based; conditions: Dirofilaria immitis, 72 h, read-out: DiMF minimally effective dose (MEC)
structure (smiles),measurement,setting,value
"O=C(NCc1ccnc(Cl)c1)n1c2c(c3ccc(OC(F)(F)F)cc31)CN(C/C=C/c1ccc(OC(F)(F)F)cc1)CC2 [Example 360, (E)-N-((2-chloropyridin-4-yl)methyl)-7-(trifluoromethoxy)-2-(3-(4-(trifluoro-methoxy)phenyl)allyl)-1,2,3,4-tetrahydro-5H-pyrido[4,3-b]indole-5-carboxamide]",minimal effective concentration,[1],7.7 µM
same,minimal effective concentration,[2],13.6 µM
"O=C(NCc1ccnc(Cl)c1)n1c2c(c3c(OC(F)(F)F)cccc31)CN(C/C=C/c1ccc(OC(F)(F)F)cc1)CC2 [Example 361, (E)-N-((2-chloropyridin-4-yl)methyl)-9-(trifluoromethoxy)-2-(3-(4-(trifluoro-methoxy)phenyl)allyl)-1,2,3,4-tetrahydro-5H-pyrido[4,3-b]indole-5-carboxamide]",minimal effective concentration,[1],> 100 µM
same,minimal effective concentration,[2],57.4 µM
"O=C(NCc1ccnc(Cl)c1)n1c2c(c3ccc(OC(F)(F)F)cc31)CN(C/C=C/c1ccc(C(F)(F)F)cc1)CC2 [Example 362, (E)-N-((2-chloropyridin-4-yl)methyl)-7-(trifluoromethoxy)-2-(3-(4-(trifluoro-methyl)phenyl)allyl)-1,2,3,4-tetrahydro-5H-pyrido[4,3-b]indole-5-carboxamide]",minimal effective concentration,[1],> 100 µM
same,minimal effective concentration,[2],31.5 µM
"O=C(NCc1ccnc(Cl)c1)n1c2c(c3c(OC(F)(F)F)cccc31)CN(C/C=C/c1ccc(C(F)(F)F)cc1)CC2 [Example 363, (E)-N-((2-chloropyridin-4-yl)methyl)-9-(trifluoromethoxy)-2-(3-(4-(trifluoro-methyl)phenyl)allyl)-1,2,3,4-tetrahydro-5H-pyrido[4,3-b]indole-5-carboxamide]",minimal effective concentration,[1],> 100 µM
same,minimal effective concentration,[2],33 µM
"O=C(NCc1ccnc(Cl)c1)n1c2c(c3ccc(OC(F)(F)F)cc31)CN(Cc1ccc3cc(Br)ccc3c1)CC2 [Example 364, 2-((6-bromonaphthalen-2-yl)methyl)-N-((2-chloropyridin-4-yl)methyl)-7-(trifluoromethoxy)-1,2,3,4-tetrahydro-5H-pyrido[4,3-b]indole-5-carboxamide]",minimal effective concentration,[1],> 100 µM
same,minimal effective concentration,[2],1.8 µM
"O=C(NCc1ccnc(Cl)c1)n1c2c(c3ccc(OC(F)(F)F)cc31)CN(Cc1cc3ccc(Cl)cc3cn1)CC2 [Example 365, 2-((7-chloroisoquinolin-3-yl)methyl)-N-((2-chloropyridin-4-yl)methyl)-7-(trifluoromethoxy)-1,2,3,4-tetrahydro-5H-pyrido[4,3-b]indole-5-carboxamide]",minimal effective concentration,[1],> 100 µM
same,minimal effective concentration,[2],4.4 µM
"O=C(NCc1ccnc(Cl)c1)n1c2c(c3ccc(OC(F)(F)F)cc31)CN(Cc1ccc3nc(Cl)ccc3c1)CC2 [Example 367, N-((2-chloropyridin-4-yl)methyl)-2-((2-chloroquinolin-6-yl)methyl)-7-(trifluoromethoxy)-1,2,3,4-tetrahydro-5H-pyrido[4,3-b]indole-5-carboxamide]",minimal effective concentration,[1],10 µM
same,minimal effective concentration,[2],> 100 µM
"O=C(NCc1ccnc(Cl)c1)n1c2c(c3ccc(OC(F)(F)F)cc31)CN(Cc1ccc3cc(Cl)ccc3c1)CC2 [Example 368, 2-((6-chloronaphthalen-2-yl)methyl)-N-((2-chloropyridin-4-yl)methyl)-7-(trifluoromethoxy)-1,2,3,4-tetrahydro-5H-pyrido[4,3-b]indole-5-carboxamide]",minimal effective concentration,[1],> 100 µM
same,minimal effective concentration,[2],43.5 µM
"O=C(NCc1ccnc(F)c1)n1c2c(c3ccc(OC(F)(F)F)cc31)CN(C/C=C/c1ccc(Cl)c(F)c1)CC2 [Example 369, (E)-2-(3-(4-chloro-3-fluorophenyl)allyl)-N-((2-fluoropyridin-4-yl)methyl)-7-(trifluoromethoxy)-1,2,3,4-tetrahydro-5H-pyrido[4,3-b]indole-5-carboxamide]",minimal effective concentration,[1],1 µM
same,minimal effective concentration,[2],10 µM
"O=C(NCc1ccnc(F)c1)n1c2c(c3ccc(OC(F)(F)F)cc31)CN(C/C=C/c1ccc(Cl)cc1Cl)CC2 [Example 370, (E)-2-(3-(2,4-dichlorophenyl)allyl)-N-((2-fluoropyridin-4-yl)methyl)-7-(trifluoromethoxy)-1,2,3,4-tetrahydro-5H-pyrido[4,3-b]indole-5-carboxamide]",minimal effective concentration,[1],3.3 µM
same,minimal effective concentration,[2],33 µM
"O=C(NCc1ccnc(F)c1)n1c2c(c3ccc(OC(F)(F)F)cc31)CN(C/C=C/c1ccc(Cl)cc1F)CC2 [Example 371, (E)-2-(3-(4-chloro-2-fluorophenyl)allyl)-N-((2-fluoropyridin-4-yl)methyl)-7-(trifluoromethoxy)-1,2,3,4-tetrahydro-5H-pyrido[4,3-b]indole-5-carboxamide]",minimal effective concentration,[1],1.3 µM
same,minimal effective concentration,[2],24.5 µM
"N#Cc1ccc(/C=C/CN2CCc3c(c4ccc(OC(F)(F)F)cc4n3C(=O)NCc3ccnc(F)c3)C2)cc1F [Example 372, (E)-2-(3-(4-cyano-3-fluorophenyl)allyl)-N-((2-fluoropyridin-4-yl)methyl)-7-(trifluoromethoxy)-1,2,3,4-tetrahydro-5H-pyrido[4,3-b]indole-5-carboxamide]",minimal effective concentration,[1],0.5 µM
same,minimal effective concentration,[2],5.7 µM
"O=C(NCc1ccnc(F)c1)n1c2c(c3ccc(OC(F)(F)F)cc31)CN(C/C=C/c1ccc(F)cc1Cl)CC2 [Example 373, (E)-2-(3-(2-chloro-4-fluorophenyl)allyl)-N-((2-fluoropyridin-4-yl)methyl)-7-(trifluoromethoxy)-1,2,3,4-tetrahydro-5H-pyrido[4,3-b]indole-5-carboxamide]",minimal effective concentration,[1],1.8 µM
same,minimal effective concentration,[2],10 µM
"O=C(NCc1ccnc(F)c1)n1c2c(c3ccc(OC(F)(F)F)cc31)CN(C/C=C/c1ccc(F)c(Cl)c1)CC2 [Example 375, (E)-2-(3-(3-chloro-4-fluorophenyl)allyl)-N-((2-fluoropyridin-4-yl)methyl)-7-(trifluoromethoxy)-1,2,3,4-tetrahydro-5H-pyrido[4,3-b]indole-5-carboxamide]",minimal effective concentration,[1],1.8 µM
same,minimal effective concentration,[2],18.2 µM
"O=C(NCc1ccnc(F)c1)n1c2c(c3ccc(OC(F)(F)F)cc31)CN(C/C=C/c1ccc(F)c(F)c1)CC2 [Example 376, (E)-2-(3-(3,4-difluorophenyl)allyl)-N-((2-fluoropyridin-4-yl)methyl)-7-(trifluoromethoxy)-1,2,3,4-tetrahydro-5H-pyrido[4,3-b]indole-5-carboxamide]",minimal effective concentration,[1],0.5 µM
same,minimal effective concentration,[2],10 µM
"O=C(NCc1ccnc(F)c1)n1c2c(c3ccc(OC(F)(F)F)cc31)CN(C/C=C/c1cc(F)cc(F)c1)CC2 [Example 378, (E)-2-(3-(3,5-difluorophenyl)allyl)-N-((2-fluoropyridin-4-yl)methyl)-7-(trifluoromethoxy)-1,2,3,4-tetrahydro-5H-pyrido[4,3-b]indole-5-carboxamide]",minimal effective concentration,[1],1.8 µM
same,minimal effective concentration,[2],10 µM
"O=C(NCc1ccnc(F)c1)n1c2c(c3c(OC(F)(F)F)cccc31)CN(C/C=C/c1ccc(Cl)cc1)CC2 [Example 379a, (E)-2-(3-(4-chlorophenyl)allyl)-N-((2-fluoropyridin-4-yl)methyl)-9-(trifluoromethoxy)-1,2,3,4-tetrahydro-5H-pyrido[4,3-b]indole-5-carboxamide]",minimal effective concentration,[1],> 100 µM
same,minimal effective concentration,[2],3.3 µM
"O=C(NCc1ccnc(F)c1)n1c2c(c3ccc(OC(F)(F)F)cc31)CN(C/C=C/c1cc(F)cc(Cl)c1)CC2 [Example 380, (E)-2-(3-(3-chloro-5-fluorophenyl)allyl)-N-((2-fluoropyridin-4-yl)methyl)-7-(trifluoromethoxy)-1,2,3,4-tetrahydro-5H-pyrido[4,3-b]indole-5-carboxamide]",minimal effective concentration,[1],> 100 µM
same,minimal effective concentration,[2],33 µM
"O=C(NCc1cnc(Cl)s1)n1c2c(c3ccc(OC(F)(F)F)cc31)CN(C/C=C/c1ccc(Cl)cc1)CC2 [Example 382, (E)-2-(3-(4-chlorophenyl)allyl)-N-((2-chlorothiazol-5-yl)methyl)-7-(trifluoromethoxy)-1,2,3,4-tetrahydro-5H-pyrido[4,3-b]indole-5-carboxamide]",minimal effective concentration,[1],3.3 µM
same,minimal effective concentration,[2],10 µM
"O=C(NCc1cnc(Cl)s1)n1c2c(c3c(OC(F)(F)F)cccc31)CN(C/C=C/c1ccc(Cl)cc1)CC2 [Example 383, (E)-2-(3-(4-chlorophenyl)allyl)-N-((2-chlorothiazol-5-yl)methyl)-9-(trifluoromethoxy)-1,2,3,4-tetrahydro-5H-pyrido[4,3-b]indole-5-carboxamide]",minimal effective concentration,[1],> 100 µM
same,minimal effective concentration,[2],5.7 µM
"O=C(NCc1ccnc(Cl)c1)n1c2c(c3cc(OC(F)(F)F)ccc31)CN(C/C=C/c1ccc(Cl)c(F)c1)CC2 [Example 384, (E)-2-(3-(4-chloro-3-fluorophenyl)allyl)-N-((2-chloropyridin-4-yl)methyl)-8-(trifluoromethoxy)-1,2,3,4-tetrahydro-5H-pyrido[4,3-b]indole-5-carboxamide]",minimal effective concentration,[1],1 µM
same,minimal effective concentration,[2],18.2 µM
"O=C(NCc1ccnc(Cl)c1)n1c2c(c3cc(OC(F)(F)F)ccc31)CN(C/C=C/c1ccc(C(F)(F)F)cn1)CC2 [Example 385, (E)-N-((2-chloropyridin-4-yl)methyl)-8-(trifluoromethoxy)-2-(3-(5-(trifluoromethyl)pyridin-2-yl)allyl)-1,2,3,4-tetrahydro-5H-pyrido[4,3-b]indole-5-carboxamide]",minimal effective concentration,[1],0.5 µM
same,minimal effective concentration,[2],47.8 µM
"N#Cc1ccc(/C=C/CN2CCc3c(c4cc(OC(F)(F)F)ccc4n3C(=O)NCc3ccnc(Cl)c3)C2)cc1F [Example 386, (E)-N-((2-chloropyridin-4-yl)methyl)-2-(3-(4-cyano-3-fluorophenyl)allyl)-8-(trifluoromethoxy)-1,2,3,4-tetrahydro-5H-pyrido[4,3-b]indole-5-carboxamide]",minimal effective concentration,[1],0.2 µM
same,minimal effective concentration,[2],3.3 µM
